The record followed here is ChEMBL document CHEMBL4680145, “Expansion of chemical space based on a pyrrolo[1,2-a]pyrazine core: Synthesis and its anticancer activity in prostate cancer and breast cancer cells” (Eur J Med Chem, 2020).

Experiment [1] relates to PC-3. As to the kind of experiment: Cytotoxicity against human PC-3 cells assessed as cell viability at 30 uM incubated for 48 hrs by MTS assay relative to control. The format is functional. As to conditions: read-out: Activity. For orientation: Tetrazolium assays rely on reduction of a dye to a coloured formazan, in cell work by metabolically active cells.
Experiment [2] relates to MCF7. As to the kind of experiment: Cytotoxicity against human MCF7 cells assessed as cell viability at 30 uM incubated for 48 hrs by MTS assay relative to control. The format is functional. As to conditions: read-out: Activity.
The subject of experiment [3] is PC-3. Description: Cytotoxicity against human PC-3 cells assessed as reduction in cell viability incubated for 48 hrs by MTS assay. The format is functional, cell-based. As to conditions: PC-3, 48 h.
In experiment [4] the test system is MCF7. Description: Cytotoxicity against human MCF7 cells assessed as reduction cell viability incubated for 48 hrs by MTS assay. The format is functional, cell-based. As to conditions: MCF7, 48 h.
Experiment [5] concerns PC-3. As to the kind of experiment: Antimigratory activity against human PC-3 cells assessed as reduction in cell migration measured every 2 hrs for 24 hrs by wound healing assay. It is filed as functional, cell-based. As to conditions: dose 1-10 µM.
The subject of experiment [6] is MCF7. As to the kind of experiment: Antimigratory activity against human MCF7 cells assessed as reduction in cell migration measured every 2 hrs for 24 hrs by wound healing assay. The format is functional, cell-based. As to conditions: dose 1-10 µM.

Structures are written as SMILES. pIC50: −log10 of the molar value.

Consider `O=C(c1ccc(Br)cc1)c1c(-c2ccccc2)ncc2cccn12`, for which the viability at 30 µM in the experiment on PC-3 [1] was 5.8%; in the experiment with MCF7 [2] it was 37%. Besides, the negative-log IC50 (pIC50) – broadly, −log10 of the IC50, conventionally taken in molar units – in the experiment with PC-3 [3] is 5.14.

With `COc1ccc([C@H]2N=Cc3cccn3[C@@H]2C(=O)c2cccc(OC)c2)cc1` (relative stereo), the viability at 30 µM came out at 83.8% in the experiment with PC-3 [1] and 77.9% in the experiment on MCF7 [2].

Take `O=C(c1ccccc1)[C@@H]1[C@@H](c2ccc(Br)cc2)N=Cc2cccn21` (relative stereo): the viability at 30 µM in the experiment on PC-3 [1] was determined as 83.3%; with MCF7 [2], 99.9%.

In the case of `COc1ccc([C@H]2N=Cc3cccn3[C@@H]2C(=O)c2ccc(Br)cc2)cc1` (relative stereo), the viability at 30 µM was 28.6% in the experiment with PC-3 [1] and 39.8% with MCF7 [2]. For the same compound, in the experiment on PC-3 [3], the pIC50 was 4.69.

In the case of `COc1cccc(C(=O)[C@@H]2[C@@H](c3ccncc3)N=Cc3cccn32)c1` (relative stereo), the viability at 30 µM was 91.4% in the experiment on PC-3 [1] and 95.5% with MCF7 [2].

Regarding `O=C(c1ccc(Br)cc1)[C@@H]1[C@@H](c2ccccc2)N=Cc2cccn21` (relative stereo), the viability at 30 µM in the experiment on PC-3 [1] was 68.5%; in the experiment on MCF7 [2] it was 66.9%.

For the compound `O=C(c1ccccc1)[C@@H]1[C@@H](c2ccc(Cl)cc2)N=Cc2cccn21` (relative stereo), the viability at 30 µM in the experiment with PC-3 [1] turned out to be 84.8%; in the experiment with MCF7 [2], 102%.

As to `COc1ccc([C@@H]2[C@@H](C(=O)c3ccc(Br)cc3)n3cccc3C=[N+]2CC(=O)c2ccccc2)cc1` (relative stereo), the viability at 30 µM came to 6.3% in the experiment with PC-3 [1] and 6.4% in the experiment with MCF7 [2]. Further, the values for the negative-log IC50 (pIC50) with PC-3 [3] and in the experiment on MCF7 [4] were 5.66 and 5.61, respectively. Moreover, the inhibition entry in the experiment on PC-3 [5] and in the experiment with MCF7 [6] was “Dose-dependent effect” each time.

Consider `O=C(c1ccc(F)cc1)[C@@H]1[C@@H](c2ccncc2)N=Cc2cccn21` (relative stereo), for which the viability at 30 µM was found to be 100% with PC-3 [1] and 78.5% with MCF7 [2].

As for `O=C(c1ccc(Br)cc1)[C@@H]1[C@@H](c2ccccn2)N=Cc2cccn21` (relative stereo), the figures for the viability at 30 µM in the experiment with PC-3 [1] and with MCF7 [2] were 73.2% and 67.5%, respectively.

Take `COc1ccc(C(=O)[C@@H]2[C@@H](c3ccco3)N=Cc3cccn32)cc1` (relative stereo): the figures for the viability at 30 µM in the experiment with PC-3 [1] and in the experiment with MCF7 [2] were 55.7% and 99.9%, respectively.

Turning to `COc1ccc(C(=O)C[N+]2=Cc3cccn3[C@H](C(=O)c3ccc(Br)cc3)[C@H]2c2ccccc2)cc1` (relative stereo), the viability at 30 µM with PC-3 [1] amounted to 56%; in the experiment on MCF7 [2], 54.5%.

Regarding `O=C(c1ccc(Br)cc1)[C@@H]1[C@@H](c2ccccc2)[N+](Cc2ccccc2)=Cc2cccn21` (relative stereo), the viability at 30 µM with PC-3 [1] is 97.9%; in the experiment with MCF7 [2] it was 98.1%.

On to `O=C(C[N+]1=Cc2cccn2[C@H](C(=O)c2ccc(Br)cc2)[C@H]1c1ccccc1)c1ccc(F)cc1` (relative stereo), for which the viability at 30 µM was 10.7% with PC-3 [1] and 33.8% in the experiment on MCF7 [2].

Regarding `O=C(c1ccc(Cl)cc1)[C@@H]1[C@@H](c2ccc[nH]2)N=Cc2cccn21` (relative stereo), the viability at 30 µM in the experiment with PC-3 [1] and in the experiment on MCF7 [2] was 102% each time.

As for `Cc1ccc([C@H]2N=Cc3cccn3[C@@H]2C(=O)c2ccc(F)cc2)cc1` (relative stereo), the viability at 30 µM in the experiment with PC-3 [1] came to 99.8%; in the experiment on MCF7 [2], 111%.

For `O=C(c1ccc(F)cc1)[C@@H]1[C@@H](c2ccc(Br)cc2)N=Cc2cccn21` (relative stereo), the viability at 30 µM with PC-3 [1] worked out at 18.5%; with MCF7 [2] it was 31.1%. Besides, the pIC50 in the experiment with PC-3 [3] was 4.79.

With `O=C(c1ccccc1)[C@@H]1[C@@H](c2ccc([N+](=O)[O-])cc2)N=Cc2cccn21` (relative stereo), the viability at 30 µM in the experiment with PC-3 [1] amounted to 86.9%; with MCF7 [2], 85.1%.

Take `COc1cc(OC)cc([C@H]2N=Cc3cccn3[C@@H]2C(=O)c2ccccc2)c1` (relative stereo): the viability at 30 µM in the experiment with PC-3 [1] was determined as 106%; in the experiment on MCF7 [2], 102%.

Take `C[N+]1=Cc2cccn2[C@H](C(=O)c2ccc(Br)cc2)[C@H]1c1ccccc1` (relative stereo): the results for the viability at 30 µM in the experiment on PC-3 [1] and with MCF7 [2] were 97.9% and 98.1%, respectively.

On to `O=C(c1ccc(Cl)cc1)[C@@H]1[C@@H](c2ccccc2)N=Cc2cccn21` (relative stereo), for which the viability at 30 µM was found to be 99.9% with PC-3 [1] and 99.3% with MCF7 [2].

As to `COc1ccc(C(=O)[C@@H]2[C@@H](c3ccc(C)cc3)N=Cc3cccn32)cc1` (relative stereo), the figures for the viability at 30 µM with PC-3 [1] and in the experiment on MCF7 [2] were 81.3% and 77.4%, respectively.

As for `O=C(c1ccc(F)cc1)[C@@H]1[C@@H](c2ccco2)N=Cc2cccn21` (relative stereo), the viability at 30 µM with PC-3 [1] came to 99.4%; in the experiment with MCF7 [2] it was 70%.

Take `O=C(c1ccccc1)[C@@H]1[C@@H](c2ccco2)N=Cc2cccn21` (relative stereo): the viability at 30 µM with PC-3 [1] was determined as 59%; in the experiment with MCF7 [2], 95.3%.

As to `COc1ccccc1[C@H]1N=Cc2cccn2[C@@H]1C(=O)c1ccccc1` (relative stereo), the viability at 30 µM with PC-3 [1] is 95.5%; in the experiment on MCF7 [2], 107%.

For the compound `O=C(c1ccc(Br)cc1)[C@@H]1[C@@H](c2ccco2)N=Cc2cccn21` (relative stereo), the viability at 30 µM with PC-3 [1] was 99.2%; with MCF7 [2], 96.5%.

`COc1ccccc1[C@H]1N=Cc2cccn2[C@@H]1C(=O)c1ccc(Cl)cc1` (relative stereo): the viability at 30 µM in the experiment on PC-3 [1] was 99.5%; with MCF7 [2], 96.5%.

As for `Cc1ccc([C@H]2N=Cc3cccn3[C@@H]2C(=O)c2ccc(Cl)cc2)cc1` (relative stereo), the viability at 30 µM with PC-3 [1] is 104%; with MCF7 [2], 100%.

With `COc1ccc([C@H]2N=Cc3cccn3[C@@H]2C(=O)c2ccc(F)cc2)cc1OC` (relative stereo), the viability at 30 µM with PC-3 [1] is 96.7%; with MCF7 [2] it was 72.8%.

For the compound `O=C(c1ccccc1)[C@@H]1[C@@H](c2cc3ccccc3[nH]2)N=Cc2cccn21` (relative stereo), the viability at 30 µM is 92.1% in the experiment with PC-3 [1] and 106% in the experiment on MCF7 [2].

As for `COc1ccc(C(=O)[C@@H]2[C@@H](c3ccc(OC)c(OC)c3)N=Cc3cccn32)cc1` (relative stereo), the values for the viability at 30 µM in the experiment on PC-3 [1] and with MCF7 [2] were 102% and 98%, respectively.

In the case of `COc1ccc(C(=O)[C@@H]2[C@@H](c3ccc(Br)cc3)N=Cc3cccn32)cc1` (relative stereo), the viability at 30 µM amounted to 96.4% in the experiment with PC-3 [1] and 100% in the experiment on MCF7 [2].

Regarding `O=C(c1ccc(F)cc1)[C@@H]1[C@@H](c2ccccc2)N=Cc2cccn21` (relative stereo), the viability at 30 µM in the experiment with PC-3 [1] stood at 76%; in the experiment on MCF7 [2] it was 70.3%.

Regarding `Cc1ccc([C@H]2N=Cc3cccn3[C@@H]2C(=O)c2ccccc2)cc1` (relative stereo), the viability at 30 µM in the experiment on PC-3 [1] and in the experiment on MCF7 [2] was 108% throughout.

Consider `O=C(C[N+]1=Cc2cccn2[C@H](C(=O)c2ccc(Br)cc2)[C@H]1c1ccccc1)c1ccc(Cl)cc1` (relative stereo), for which the viability at 30 µM with PC-3 [1] stood at 80.8%; in the experiment with MCF7 [2], 82.5%.

Take `COc1cccc(C(=O)[C@@H]2[C@@H](c3ccccc3)N=Cc3cccn32)c1` (relative stereo): the viability at 30 µM in the experiment on PC-3 [1] and in the experiment with MCF7 [2] was 104% each time.

On to `COc1ccccc1[C@H]1N=Cc2cccn2[C@@H]1C(=O)c1ccc(F)cc1` (relative stereo), for which the viability at 30 µM worked out at 86.4% in the experiment on PC-3 [1] and 69.3% in the experiment on MCF7 [2].

Regarding `O=C(c1ccccc1)[C@@H]1[C@@H](c2ccccc2)N=Cc2cccn21` (relative stereo), the viability at 30 µM in the experiment with PC-3 [1] came to 106%; in the experiment on MCF7 [2] it was 104%.

Regarding `CCOC(=O)C[N+]1=Cc2cccn2[C@H](C(=O)c2ccc(Br)cc2)[C@H]1c1ccccc1` (relative stereo), the viability at 30 µM with PC-3 [1] was 10.7%; with MCF7 [2], 24%. Also, the pIC50 with PC-3 [3] is 5.06.

For the compound `Cc1ccc([C@H]2N=Cc3cccn3[C@@H]2C(=O)c2ccc(Br)cc2)cc1` (relative stereo), the viability at 30 µM in the experiment on PC-3 [1] came to 99%; in the experiment with MCF7 [2] it was 99.9%.

As for `COc1cccc(C(=O)[C@@H]2[C@@H](c3ccc(Cl)cc3)N=Cc3cccn32)c1` (relative stereo), the viability at 30 µM was 99.6% in the experiment with PC-3 [1] and 118% in the experiment with MCF7 [2].
